Read-outs that look alike come from different tables or passages of the source.
Target: T1, RORc ligand binding domain (Homo sapiens, UniProt P51449)
T1 sequence (P51449 269-508 limits assumed): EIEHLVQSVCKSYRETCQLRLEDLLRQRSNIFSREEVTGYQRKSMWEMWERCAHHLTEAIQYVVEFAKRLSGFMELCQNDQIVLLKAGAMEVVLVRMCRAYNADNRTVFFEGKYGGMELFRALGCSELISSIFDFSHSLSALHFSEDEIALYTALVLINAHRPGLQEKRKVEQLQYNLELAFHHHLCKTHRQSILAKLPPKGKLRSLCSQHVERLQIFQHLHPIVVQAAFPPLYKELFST
Test: In vitro RORc ligand binding assay (25-[3H]hydroxycholesterol displacement)

SMILES | IC50 [nM] | IC50 (IC50 values for RORc) [nM]
C[C@H]1CC[C@H](c2ccccc2)S(=O)(=O)N1Cc1cc(F)c(C2(N3CCOC3=O)CCOCC2)cc1F [Example 102, 3-[4-[2,5-difluoro-4-[[(3S,6R)-3-methyl-1,1-dioxo-6-phenyl-thiazinan-2-yl]methyl]phenyl]tetrahydropyran-4-yl]oxazolidin-2-one] | 55.3 | –
C[C@H]1CC[C@H](c2ccccc2)S(=O)(=O)N1Cc1cc(F)c(C2(NCc3nnc[nH]3)CCOCC2)cc1F [Example 92, 4-[2,5-difluoro-4-[[(3S,6R)-3-methyl-1,1-dioxo-6-phenyl-thiazinan-2-yl]methyl]phenyl]-N-(4H-1,2,4-triazol-3-ylmethyl)tetrahydropyran-4-amine] | 23.6 | –
C[C@H]1CC[C@H](c2ccccc2)S(=O)(=O)N1Cc1ccc(C2(NCc3ccc[nH]c3=O)CCOCC2)cc1F [Example 77, 3-[[[4-[3-fluoro-4-[[(3S,6R)-3-methyl-1,1-dioxo-6-phenyl-thiazinan-2-yl]methyl]phenyl]tetrahydropyran-4-yl]amino]methyl]-1H-pyridin-2-one] | 87.2 | –
C[C@H]1CC[C@H](c2ccccc2)S(=O)(=O)N1Cc1ccc(C2(c3nnco3)CCOCC2)cc1F [Example 42, (3S,6R)-2-[[2-fluoro-4-[4-(1,3,4-oxadiazol-2-yl)tetrahydropyran-4-yl]phenyl]methyl]-3-methyl-6-phenyl-thiazinane 1,1-dioxide] | 54.6 | –
C[C@H]1CC[C@H](c2ccccc2)S(=O)(=O)N1Cc1cc(F)c([C@]2(Cn3cncn3)C[C@](C)(O)C2)cc1F (racemic) [Example 182, 3-[2,5-difluoro-4-[[rac-(3S,6R)-3-methyl-1,1-dioxo-6-phenyl-thiazinan-2-yl]methyl]phenyl]-1-methyl-3-(1,2,4-triazol-1-ylmethyl)cyclobutanol] | 7.3 | –
C[C@H]1CC[C@H](c2ccccc2)S(=O)(=O)N1Cc1cc(F)c([C@]2(c3cn(C)c(=O)o3)C[C@](C)(O)C2)cc1F [Example 159, 5-[1-[2,5-difluoro-4-[[(3S,6R)-3-methyl-1,1-dioxo-6-phenyl-thiazinan-2-yl]methyl]phenyl]-3-hydroxy-3-methyl-cyclobutyl]-3-methyl-oxazol-2-one] | 2.8 | –
C[C@H]1CC[C@H](c2ccccc2)S(=O)(=O)N1Cc1cc(F)c([C@]2(c3n[nH]c(=O)o3)C[C@@H](CC#N)C2)cc1F [Example 152, cis 2-[3-[2,5-difluoro-4-[[(3S,6R)-3-methyl-1,1-dioxo-6-phenyl-thiazinan-2-yl]methyl]phenyl]-3-(2-oxo-3H-1,3,4-oxadiazol-5-yl)cyclobutyl]acetonitrile] | 7.1 | –
C[C@H]1CC[C@H](c2ccccc2)S(=O)(=O)N1Cc1ccc(C2(n3cn[nH]c3=O)CCOCC2)cc1F [Example 70, 4-[4-[3-fluoro-4-[[(3S,6R)-3-methyl-1,1-dioxo-6-phenyl-thiazinan-2-yl]methyl]phenyl]tetrahydropyran-4-yl]-1H-1,2,4-triazol-5-one] | 113 | –
Cc1nnc(COCC2(c3ccc(CN4[C@@H](C)CC[C@H](c5ccccc5)S4(=O)=O)c(F)c3)CCOCC2)o1 | 90.3 | –
C[C@H]1CC[C@H](c2ccccc2)S(=O)(=O)N1Cc1cc(F)c(C2(NC(=O)c3cnn(C)c3)COC2)cc1F (stereo in doubt) [Example 131, N-[3-[2,5-difluoro-4-[[(3S,6R)-3-methyl-1,1-dioxo-6-phenyl-thiazinan-2-yl]methyl]phenyl]oxetan-3-yl]-1-methyl-pyrazole-4-carboxamide] | 208 | –
C[C@H]1CC[C@H](c2ccccc2)S(=O)(=O)N1Cc1cc(F)c(C2(C(=O)NCC3COC3)CCOCC2)cc1F [Example 346, 4-[2,5-difluoro-4-[[(3S,6R)-3-methyl-1,1-dioxo-6-phenyl-thiazinan-2-yl]methyl]phenyl]-N-(oxetan-3-ylmethyl)tetrahydropyran-4-carboxamide] | 47.4 | –
Cc1ccn(C(=O)C2(c3cc(F)c(CN4[C@@H](C)CC[C@H](c5ccccc5)S4(=O)=O)cc3F)CCOCC2)n1 [Example 38, [4-[2,5-difluoro-4-[[(3S,6R)-3-methyl-1,1-dioxo-6-phenyl-thiazinan-2-yl]methyl]phenyl]tetrahydropyran-4-yl]-(3-methylpyrazol-1-yl)methanone] | 35 | –
C[C@H]1CC[C@H](c2ccccc2)S(=O)(=O)N1Cc1cc(F)c([C@]2(c3n[nH]c(=O)o3)C[C@H](CC#N)C2)cc1F [Example 153, trans 2-[3-[2,5-difluoro-4-[[(3S,6R)-3-methyl-1,1-dioxo-6-phenyl-thiazinan-2-yl]methyl]phenyl]-3-(2-oxo-3H-1,3,4-oxadiazol-5-yl)cyclobutyl]acetonitrile] | 8.7 | –
CO[C@H]1C[C@](c2n[nH]c(=O)o2)(c2cc(F)c(CN3[C@@H](C)CC[C@H](c4ccccc4)S3(=O)=O)cc2F)C1 [Example 155, cis 5-[1-[2,5-difluoro-4-[[(3S,6R)-3-methyl-1,1-dioxo-6-phenyl-thiazinan-2-yl]methyl]phenyl]-3-methoxy-cyclobutyl]-3H-1,3,4-oxadiazol-2-one] | 11.3 | –
CO[C@]1(C)C[C@@](c2n[nH]c(=O)o2)(c2cc(F)c(CN3[C@@H](C)CC[C@H](c4ccccc4)S3(=O)=O)cc2F)C1 [Example 157, cis 5-[1-[2,5-difluoro-4-[[(3S,6R)-3-methyl-1,1-dioxo-6-phenyl-thiazinan-2-yl]methyl]phenyl]-3-methoxy-3-methyl-cyclobutyl]-3H-1,3,4-oxadiazol-2-one] | 7.4 | –
C[C@H]1CC[C@H](c2ccccc2)S(=O)(=O)N1Cc1cc(F)c([C@]2(c3nn(C)c(=O)o3)C[C@](C)(O)C2)cc1F (racemic) [Example 167] | – | 19.2
C[C@H]1CC[C@H](c2ccccc2)S(=O)(=O)N1Cc1cc(F)c(C2(N3C[C@H](CO)OC3=O)CCOCC2)cc1F [Example 98, (5R)-3-[4-[2,5-difluoro-4-[[(3S,6R)-3-methyl-1,1-dioxo-6-phenyl-thiazinan-2-yl]methyl]phenyl]tetrahydropyran-4-yl]-5-(hydroxymethyl)oxazolidin-2-one] | 67.6 | –
C[C@H]1CC[C@H](c2ccccc2)S(=O)(=O)N1Cc1ccc(C2(N(C)Cc3nnc[nH]3)CCOCC2)cc1F [Example 79, 4-[3-fluoro-4-[[(3S,6R)-3-methyl-1,1-dioxo-6-phenyl-thiazinan-2-yl]methyl]phenyl]-N-methyl-N-(4H-1,2,4-triazol-3-ylmethyl)tetrahydropyran-4-amine] | 77.1 | –
C[C@H]1CC[C@H](c2ccccc2)S(=O)(=O)N1Cc1cc(F)c(C2(NCc3cocn3)COC2)cc1F [Example 85, 3-[2,5-difluoro-4-[[(3S,6R)-3-methyl-1,1-dioxo-6-phenyl-thiazinan-2-yl]methyl]phenyl]-N-(oxazol-4-ylmethyl)oxetan-3-amine] | 4.1 | –
C[C@H]1CC[C@H](c2ccccc2)S(=O)(=O)N1Cc1cc(F)c(C2(NC(=O)c3cocn3)COC2)cc1F [Example 96, N-[3-[2,5-difluoro-4-[[(3S,6R)-3-methyl-1,1-dioxo-6-phenyl-thiazinan-2-yl]methyl]phenyl]oxetan-3-yl]oxazole-4-carboxamide] | 35.6 | –
Cc1cc(N)nn1C(=O)C1(c2ccc(CN3[C@@H](C)CC[C@H](c4ccccc4)S3(=O)=O)c(F)c2)CCOCC1 [Example 21, (3-amino-5-methyl-pyrazol-1-yl)-[4-[3-fluoro-4-[[(3S,6R)-3-methyl-1,1-dioxo-6-phenyl-thiazinan-2-yl]methyl]phenyl]tetrahydropyran-4-yl]methanone] | 1.9 | –
